Laboratory results: patent publication US6825340B2, “Methods and reagents for inactivating ribonucleases” (Ambion, Inc., priority 1998, dated 2004)
Entries after “also recorded” stand apart in the source; their conditions may differ.

Legend:
[1] = molecular target: T1, SP6 RNA polymerase (Enterobacteria phage SP6, UniProt P06221); assay: In vitro transcription reaction (MAXIscript kit), UTP[α-32P] incorporation; format: biochemical; conditions: 20 mM reducing reagent
T1 construct: purchased Ambion, Inc
T1 sequence (P06221 1-874): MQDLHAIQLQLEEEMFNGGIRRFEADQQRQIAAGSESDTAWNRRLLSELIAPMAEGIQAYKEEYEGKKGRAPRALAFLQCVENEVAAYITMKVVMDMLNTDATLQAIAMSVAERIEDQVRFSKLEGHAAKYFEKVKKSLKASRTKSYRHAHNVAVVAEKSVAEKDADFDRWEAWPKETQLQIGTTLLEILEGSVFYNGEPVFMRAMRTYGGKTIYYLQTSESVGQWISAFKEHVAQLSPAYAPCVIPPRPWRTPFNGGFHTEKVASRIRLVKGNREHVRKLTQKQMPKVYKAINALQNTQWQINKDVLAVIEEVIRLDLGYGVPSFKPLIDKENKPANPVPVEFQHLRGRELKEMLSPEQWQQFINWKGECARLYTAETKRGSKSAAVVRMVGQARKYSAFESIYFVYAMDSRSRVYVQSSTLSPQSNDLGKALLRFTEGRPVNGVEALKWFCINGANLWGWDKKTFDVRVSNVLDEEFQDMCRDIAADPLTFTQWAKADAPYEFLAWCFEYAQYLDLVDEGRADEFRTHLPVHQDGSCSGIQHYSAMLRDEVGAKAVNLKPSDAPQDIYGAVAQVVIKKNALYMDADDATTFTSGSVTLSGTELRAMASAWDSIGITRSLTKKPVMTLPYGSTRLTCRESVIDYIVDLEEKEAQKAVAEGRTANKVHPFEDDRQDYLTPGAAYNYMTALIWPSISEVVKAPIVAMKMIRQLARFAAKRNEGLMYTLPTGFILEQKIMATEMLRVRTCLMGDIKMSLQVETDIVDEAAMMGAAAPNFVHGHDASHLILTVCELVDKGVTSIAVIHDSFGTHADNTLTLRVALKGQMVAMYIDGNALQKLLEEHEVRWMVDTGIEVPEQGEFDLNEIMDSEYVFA
Experimental: (§1) FIG. 3. […] Transcriptions were performed with T7, T3 and SP6 RNA polymerase in the presence and absence of 20 mM DTT. For each RNA polymerase reaction, pTRI-Xef DNA was the template and UTP[α^32P] was included to measure the efficiency of transcription. Duplicates were performed for each reaction. TCA precipitations were performed on each transcription reaction to measure the percent of the UTP[α^32P] incorporated into RNA.
(§2) The transcription reactions were based on the MAXIscript™ transcription kit (Ambion, Inc.). The following were assembled with or without 20 mM reducing reagent in a final volume of 18 μl: NTPs (0.5 mM each), 1 μg linearized DNA template, 2 μl 10 × transcription buffer, and 0.2 μl UTP [α-^32P] (800 Ci/mmol). The reaction mixtures were incubated 60° C. for 10 minutes and then 2 μl of the either SP6, T7 or T3 RNA polymerase (10 units/μl) were added to the reactions, incubated 30° C. for 60 minutes and then TCA precipitated to assess the incorporation of the radioactive label.

[2] = molecular target: T2, T3 RNA polymerase (Enterobacteria phage T3, UniProt P07659); assay: as above; format: biochemical; conditions: 20 mM reducing reagent
T2 construct: purchased Ambion, Inc
T2 sequence (P07659 whole entry): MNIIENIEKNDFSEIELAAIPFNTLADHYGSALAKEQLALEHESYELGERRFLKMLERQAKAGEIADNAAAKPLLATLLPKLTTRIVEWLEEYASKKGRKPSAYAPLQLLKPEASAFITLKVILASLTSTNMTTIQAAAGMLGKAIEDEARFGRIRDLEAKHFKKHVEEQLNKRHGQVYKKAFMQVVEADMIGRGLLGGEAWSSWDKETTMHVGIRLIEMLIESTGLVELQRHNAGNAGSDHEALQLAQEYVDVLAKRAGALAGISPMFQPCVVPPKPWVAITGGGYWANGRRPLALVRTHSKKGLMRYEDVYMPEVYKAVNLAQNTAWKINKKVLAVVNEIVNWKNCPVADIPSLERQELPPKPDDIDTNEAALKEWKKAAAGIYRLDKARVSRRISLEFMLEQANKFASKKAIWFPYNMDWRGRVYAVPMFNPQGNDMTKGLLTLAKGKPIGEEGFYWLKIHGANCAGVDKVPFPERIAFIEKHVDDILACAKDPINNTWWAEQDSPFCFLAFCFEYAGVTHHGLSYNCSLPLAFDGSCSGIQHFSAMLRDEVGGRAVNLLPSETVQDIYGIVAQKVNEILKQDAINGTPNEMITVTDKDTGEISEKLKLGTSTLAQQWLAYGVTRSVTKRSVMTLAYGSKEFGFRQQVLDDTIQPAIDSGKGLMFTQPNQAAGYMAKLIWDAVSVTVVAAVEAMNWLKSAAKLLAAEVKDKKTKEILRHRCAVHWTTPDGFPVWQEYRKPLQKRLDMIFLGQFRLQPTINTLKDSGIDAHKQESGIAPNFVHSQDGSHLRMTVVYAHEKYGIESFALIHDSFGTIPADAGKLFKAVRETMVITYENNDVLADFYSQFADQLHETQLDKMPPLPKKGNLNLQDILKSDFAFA
Experimental: as §1, §2

[3] = molecular target: T3, T7 RNA polymerase (Escherichia phage T7, UniProt P00573); assay: as above; format: biochemical; conditions: 20 mM reducing reagent
T3 construct: purchased Ambion, Inc
T3 sequence (P00573 whole entry): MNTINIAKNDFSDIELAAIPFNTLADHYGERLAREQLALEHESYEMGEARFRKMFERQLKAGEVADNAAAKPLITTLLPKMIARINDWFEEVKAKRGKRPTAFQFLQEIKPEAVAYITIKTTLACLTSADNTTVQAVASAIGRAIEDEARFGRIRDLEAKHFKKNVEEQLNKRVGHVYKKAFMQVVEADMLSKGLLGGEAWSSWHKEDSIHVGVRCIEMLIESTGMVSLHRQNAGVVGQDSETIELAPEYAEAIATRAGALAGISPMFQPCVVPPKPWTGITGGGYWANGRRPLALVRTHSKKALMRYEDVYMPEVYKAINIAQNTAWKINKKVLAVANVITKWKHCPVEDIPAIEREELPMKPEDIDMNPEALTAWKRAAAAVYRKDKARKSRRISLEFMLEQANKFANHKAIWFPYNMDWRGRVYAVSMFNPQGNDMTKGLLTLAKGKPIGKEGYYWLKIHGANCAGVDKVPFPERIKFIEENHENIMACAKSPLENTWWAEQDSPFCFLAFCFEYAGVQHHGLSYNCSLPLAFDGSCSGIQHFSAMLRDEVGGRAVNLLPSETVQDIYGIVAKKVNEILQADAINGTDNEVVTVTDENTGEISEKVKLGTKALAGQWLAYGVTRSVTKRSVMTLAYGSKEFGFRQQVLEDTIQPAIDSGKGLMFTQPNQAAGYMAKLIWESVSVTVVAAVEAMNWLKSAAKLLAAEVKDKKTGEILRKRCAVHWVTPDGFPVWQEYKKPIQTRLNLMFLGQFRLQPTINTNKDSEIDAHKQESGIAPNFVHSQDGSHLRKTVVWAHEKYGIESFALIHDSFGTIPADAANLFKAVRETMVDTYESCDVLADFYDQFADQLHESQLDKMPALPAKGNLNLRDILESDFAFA
Experimental: as §1, §2

[4] = molecular target: T4, RNase A (Bos taurus, UniProt P61823); assay: RNase A inactivation, mouse total RNA on agarose formaldehyde gel; format: biochemical
T4 sequence (P61823 27-150): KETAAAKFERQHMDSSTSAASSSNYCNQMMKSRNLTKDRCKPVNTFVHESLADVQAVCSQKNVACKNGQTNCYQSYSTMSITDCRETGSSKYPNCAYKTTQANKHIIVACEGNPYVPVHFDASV
Experimental: The non-isotopic assay uses total RNA isolated from mouse as the substrate for the RNase mixture. […] A quantity of 4 μg of total RNA isolated from mouse liver or brain was dissolved in an aqueous solution, usually water or 1 mM sodium citrate (pH 6.6). The treated ribonuclease sample was added to the total RNA and then incubated at 37° C. for 1 or 16 hours, depending on the sensitivity desired for the assay. After incubation, the RNA was fractionated in a formaldehyde 1% agarose gel. The RNA was detected by staining with ethidium bromide and then illuminating the gel with ultraviolet light. The RNA fluoresces in the gel. Untreated total RNA was also fractionated as a control with the test samples for comparative purposes. […] Intact total RNA has two major bands produced by the 28S and 18S ribosomal RNA. […] RNase A, at 200 ng/ml instead of 10 μg/ml, was treated with or without 4 mM DTT in Boshes' solution A at 4° C. for 20 minutes. RNase A activity was then tested by incubating mouse liver total RNA with the treated RNase A at 37° C. for 60 minutes. The mouse RNA was then fractionated by electrophoresis in a 1% agarose formaldehyde gel. […] RNase A was diluted to 154 ng/ml in 1 mM sodium citrate (pH 6.4) or in Boshes' (1970) buffer A. DTT was added to the samples to 4 mM or 20 mM and then incubated at 4° C. or 60° C. for 20 minutes.

[5] = molecular target: DNase I (Bos taurus, UniProt P00639); assay: DNase I activity after reducing/heat treatment, plasmid DNA degradation; format: biochemical; conditions: 20 mM reducing reagent in water; DNase I 0.4 units/μl; 60° C. for 20 minutes
DNase I, sequence (P00639 23-282): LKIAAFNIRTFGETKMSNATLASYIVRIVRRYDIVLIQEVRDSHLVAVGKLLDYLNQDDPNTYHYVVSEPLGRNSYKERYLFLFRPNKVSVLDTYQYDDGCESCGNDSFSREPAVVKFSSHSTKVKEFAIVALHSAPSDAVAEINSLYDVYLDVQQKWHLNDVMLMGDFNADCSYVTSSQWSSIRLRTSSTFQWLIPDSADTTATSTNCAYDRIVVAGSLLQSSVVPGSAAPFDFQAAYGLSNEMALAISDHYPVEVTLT
Experimental: DNase I is commonly used to degrade contaminating DNA in RNA preparations. To test whether the inactivation method affected DNase I activity, DNase I (final concentration of 0.4 units/μl) was added to water containing 20 mM DTT, DTE or β-mercaptoethanol. The mixture was incubated at 60° C. for 20 minutes. After the heat treatment, the DNase I activity was tested by incubating the treated DNase I with plasmid DNA (0.2 μg/μl ) at 37° C. for one hour followed by electrophoresis in a 1% agarose gel.

[6] = tested on: unknown RNase in psoralen biotin; assay: Integrity of psoralen biotin labeled Millennium Markers after 37° C., 16 hours; format: biochemical; conditions: 5 mM DTT; 90° C. for 10 minutes; then 37° C. for 16 hours
Experimental: The Millennium™ Markers (Ambion, Inc.) are a set of RNA size markers from 0.5 to 9 kb in length. They are used for determining the length of an unknown RNA. These markers were being labeled with biotin using a psoralen biotin labeling procedure so that they could be detected non-isotopically on a nylon membrane. However, if the Millennium™Markers were incubated at 37° C. for 16 hours after labeling with the psoralen biotin, they were degraded.

[7] = molecular target: T4, RNase A; conditions: RNase A 10 μg/ml; 4 mM DTT; 4° C. for 20 minutes; cited from earlier work

O[C@H](CS)[C@H](O)CS [DTT, dithiothreitol]
inhibition of SP6 RNA polymerase transcription [1]: does not inhibit; also recorded: None of the three polymerases were inhibited | inhibition of T3 RNA polymerase transcription [2]: does not inhibit; also recorded: None of the three polymerases were inhibited | inhibition of T7 RNA polymerase transcription [3]: does not inhibit; also recorded: None of the three polymerases were inhibited | RNase A inactivation ([4]; RNase A 154 ng/ml, 4 mM DTT, 4° C. for 20 minutes): not inactivated | RNase A inactivation ([4]; RNase A 154 ng/ml, 4 mM DTT, 60° C. for 20 minutes): completely inactivated | RNase A inactivation ([4]; RNase A 154 ng/ml, 20 mM DTT, 4° C. for 20 minutes): not inactivated | RNase A inactivation ([4]; RNase A 154 ng/ml, 20 mM DTT, 60° C. for 20 minutes): completely inactivated | RNase A inactivation ([4]; RNase A 200 ng/ml, 4 mM DTT, Boshes' solution A, 4° C. for 20 minutes): not inactivated | RNase A inactivation ([4]; RNase A, 20 mM DTT, 60° C. for 20 minutes): completely inactivated | DNase I activity after reducing/heat treatment [5]: not affected | integrity of psoralen biotin labeled Millennium Markers [6]: remained intact | RNase A activity (Boshes, 1970) [7]: inhibited
